Experimental data published in patent US5708063A, “Photochromic compound” (Tokuyama Corporation, priority 1993, dated 1998).

What was measured:
Type in all cases: physicochemical
[1] = Fatigue life of fulgide/fulgimide and chromene compound in polymerized methacrylate plate (Example 15); conditions: for T1/2 of fulgide or fulgimide compound: 0.05 part
Method: (§1) […] The mixed solution was injected into a mold which was made of a glass plate and a gasket formed of an ethylene-vinyl acetate copolymer, and was heated to a temperature of 35° to 90° C. in an air oven over a period of 20 hours for polymerization. After the polymerization was over, the polymer was withdrawn from the glass plate of the mold.
(§2) The resulting polymerized plate was irradiated with sunlight for 10 minutes. On this occasion, a color tone of said plate was visually observed. In this polymerized plate, the fulgide or fulgimide compound and the chromene compound were measured for fatigue life in the same manner as in Example 9. Further, a color tone of the polymerized plate was visually observed in T1/2 (hrs.) of the fulgide or fulgimide compound.

[2] = Fatigue life of fulgide/fulgimide and chromene compound in polymerized plate with ultraviolet light stabilizer (Example 16)
[3] = Visual color tone of polymerized plate under sunlight (Example 15); conditions: 0.05 part
Method: as §1, §2

[4] = Durability of poly(allyl diglycol carbonate) lens impregnated with the compound in silicone oil, as in Example 9 (Example 10); parameters: Initial color density: unit not given here; conditions: silicone oil impregnation; for Initial color density: 1.0×10^-4 mole/g; for T1/2: xenon fadeometer
Method: (§3) T1/2 is defined as the time required for the color density to decrease to half of its initial value when the film is exposed to the fadeometer.
The solution was impregnated in the surface of a lens composed of poly(allyl diglycol carbonate) at 200° C. for 1 hour. The concentration of the solution was adjusted to 1.0×10^-4 mole/g.

[5] = Photochromic PMMA cast film: initial coloration density, maximum absorption wavelength and fatigue life in xenon fadeometer (Example 9); conditions: PMMA cast film 0.1 mm; for λmax / Initial color density: xenon light; for Initial color density / T1/2: no stabilizer; for T1/2: time for color density to fall to half of initial value, xenon fadeometer;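 for Initial color density: initial color density is an absorbance value so the % unit is wrong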
Description: The thickness of the cast film was adjusted to 0.1 mm.
as §3

[6] = Fatigue life of photochromic PMMA cast film with ultraviolet stabilizer, xenon fadeometer (Examples 11-14); conditions: PMMA film, UV stabilizer Cyasorb UV1084, 0.2 part
Method: One hundred parts by weight of benzene, 10 parts by weight of poly(methyl methacrylate), 0.2 part […] The solution was cast on a slide glass (11.2×3.7 cm) to form a cast film having a thickness of 0.1 mm.
The fatigue life of photochromic film was measured as in Example 9 by a xenon long-life fadeometer (FAL-25AX-HC made by Suga Testing Instrument Co., Ltd.).
Example 11 was repeated except that the fulgimide compound obtained in Example 2 was used instead of fulgimide compound used in Example 11.
Example 11 was repeated except that the fulgimide or fulgide compounds shown in Table 28 were used instead of the fulgimide compounds in Example 11, and Cyasorb UV1084 was used as the ultraviolet stabilizer.

Compound: 7'-methoxyspiro(bicyclo[3.3.1]nonane-9,2'-(2H)benzo(f)-chromene) [Chromene compound 2]
- T1/2 of chromene compound ([1]; 0.03 part, with fulgide/fulgimide 2 (0.05 part)): 210 h
- T1/2 of chromene compound ([1]; 0.03 part, with fulgide/fulgimide 21 (0.05 part)): 170 h
- T1/2 of chromene compound ([1]; 0.03 part, with fulgide/fulgimide 36 (0.05 part)): 190 h
- T1/2 of chromene compound ([1]; 0.03 part, with fulgide/fulgimide 45 (0.05 part)): 175 h
- T1/2 of chromene compound ([1]; 0.03 part, with fulgide/fulgimide 54 (0.05 part)): 165 h
- T1/2 of chromene compound ([1]; 0.04 part chromene 2, with fulgide/fulgimide 2/48 (0.025/0.025 part)): 190 h
- T1/2 of chromene compound ([2]; 0.04 part, fulgimide 2 (0.05), Tiniuvin 765 (0.1)): 340 h
- T1/2 of chromene compound ([2]; 0.04 part, fulgimide 2 (0.05), Tinuvin 765 (0.2)): 350 h
- T1/2 of chromene compound ([2]; 0.04 part, fulgimide 2 (0.05), Tinuvin 765 (0.5)): 400 h
- T1/2 of chromene compound ([2]; 0.04 part, fulgimide 2 (0.05), Tinuvin 765 (1.0)): 480 h
- T1/2 of chromene compound ([2]; 0.04 part, fulgimide 2 (0.05), Tinuvin 765 (2.0)): 500 h
- T1/2 of chromene compound ([2]; 0.04 part, fulgimide 2 (0.05), Tinuvin 765 (10.0)): 520 h
- T1/2 of chromene compound ([2]; 0.04 part, fulgimide 2 (0.05), UV Chek AM105 (0.7)): 440 h
- T1/2 of chromene compound ([2]; 0.05 part, fulgimide 2 (0.05), LA-63 (0.5)): 480 h
- T1/2 of chromene compound ([2]; 0.05 part, fulgimide 48 (0.05), Cyasorb UV 1084 (0.6)): 430 h

Compound: CC(=O)CN1C(=O)C2=C(C3CC3C)c3cc(-c4ccccc4)sc3C3(C4CCC3CC4)C2C1=O (stereo not drawn) [(10)]
- Color tone in T0 ([3]; with chromene 3 (0.08 part)): green
- Color tone in T1/2 ([3]; with chromene 3 (0.08 part)): bluish gray
- T1/2 of fulgide or fulgimide compound ([1]; with chromene 3 (0.08 part)): 190 h
- λmax [4]: 615 nm
- Initial color density [4]: 0.82
- T1/2 [4]: 85 h
- λmax [5]: 610 nm
- Initial color density [5]: 0.83%
- T1/2 [5]: 80 h

Compound: COC(=O)C(C)N1C(=O)C2=C(C3CC3(C)C)c3ccoc3C3(C4CCC3(Cl)CC4)C2C1=O (stereo not drawn) [(12)]
- Color tone in T0 ([3]; with chromene 4 (0.08 part)): gray
- Color tone in T1/2 ([3]; with chromene 4 (0.08 part)): gray
- T1/2 of fulgide or fulgimide compound ([1]; with chromene 4 (0.08 part)): 184 h
- λmax [5]: 581 nm
- Initial color density [5]: 0.78%
- T1/2 [5]: 77 h
- T1/2 [6]: 320 h

Compound: CCCCC1CC1C1=C2C(=O)N(C(C)(C)C#N)C(=O)C2C2(c3c(OC)cc(OC)cc31)C1CCC2(CCCC)CC1 (stereo not drawn) [(17)]
- Color tone in T0 ([3]; with chromene 5 (0.03 part)): gray
- Color tone in T1/2 ([3]; with chromene 5 (0.03 part)): gray
- T1/2 of fulgide or fulgimide compound ([1]; with chromene 5 (0.03 part)): 146 h
- λmax [5]: 568 nm
- Initial color density [5]: 0.58%
- T1/2 [5]: 58 h
- T1/2 [6]: 230 h

Compound: NC1CC1C1=C2C(=O)N(COC(=O)Cc3cccc4ccccc34)C(=O)C2C2(c3c1ccn3-c1ccccc1)C1(O)CCC2(O)CC1 (stereo not drawn) [(21)]
- Color tone in T0 ([3]; with chromene 2 (0.03 part)): green
- Color tone in T1/2 ([3]; with chromene 2 (0.03 part)): green
- T1/2 of fulgide or fulgimide compound ([1]; with chromene 2 (0.03 part)): 172 h
- λmax [5]: 613 nm
- Initial color density [5]: 0.78%
- T1/2 [5]: 71 h

Compound: CCCC1CC1C1=C2C(=O)N(C(C)C(C)=O)C(=O)C2C2(c3oc(OC)cc31)C1CCCC2CCC1 (stereo not drawn) [(30)]
- Color tone in T0 ([3]; with chromene 1 (0.03 part)): gray
- Color tone in T1/2 ([3]; with chromene 1 (0.03 part)): gray
- T1/2 of fulgide or fulgimide compound ([1]; with chromene 1 (0.03 part)): 186 h
- λmax [4]: 571 nm
- Initial color density [4]: 0.68
- T1/2 [4]: 85 h
- λmax [5]: 569 nm
- Initial color density [5]: 0.73%
- T1/2 [5]: 78 h

Compound: CCOC1CC1C1=C2C(=O)N(C(C#N)CC)C(=O)C2C2(c3sc(OC)c(C)c31)C1CC3CC(C1)CC2C3 (stereo not drawn) [(36)]
- Color tone in T0 ([3]; with chromene 2 (0.03 part)): gray
- Color tone in T1/2 ([3]; with chromene 2 (0.03 part)): gray
- T1/2 of fulgide or fulgimide compound ([1]; with chromene 2 (0.03 part)): 206 h
- λmax [4]: 582 nm
- Initial color density [4]: 0.77
- T1/2 [4]: 95 h
- λmax [5]: 576 nm
- T1/2 [5]: 88 h

Compound: CCn1c2c(c3ccccc31)C(C1CC1C(=O)O)=C1C(=O)N(CC(=O)OCCC#N)C(=O)C1C21C2CC3CC(O)(C2)CC1(O)C3 (stereo not drawn) [(44)]
- Color tone in T0 ([3]; with chromene 3 (0.08 part)): gray
- Color tone in T1/2 ([3]; with chromene 3 (0.08 part)): gray
- T1/2 of fulgide or fulgimide compound ([1]; with chromene 3 (0.08 part)): 154 h
- λmax [5]: 576 nm
- Initial color density [5]: 0.75%
- T1/2 [5]: 62 h

Compound: CCC(C(=O)C[N+](=O)[O-])N1C(=O)C2=C(C3CC3)c3cc(OC)cc(OC)c3C3(C4CC5CC(C4)CC3C5)C2C1=O (stereo not drawn) [(45)]
- Color tone in T0 ([3]; with chromene 2 (0.03 part)): gray
- Color tone in T1/2 ([3]; with chromene 2 (0.03 part)): light gray
- T1/2 of fulgide or fulgimide compound ([1]; with chromene 2 (0.03 part)): 160 h
- λmax [5]: 579 nm
- Initial color density [5]: 0.54%
- T1/2 [5]: 65 h
- T1/2 [6]: 265 h

Compound: O=C(CN1C(=O)C2=C(C3CC3)c3c(sc4c3CCCC4)C3(C4CC5CC(C4)CC3C5)C2C1=O)NCCCl (stereo not drawn) [(46)]
- Color tone in T0 ([3]; with chromene 5 (0.07 part)): amber
- Color tone in T1/2 ([3]; with chromene 5 (0.07 part)): amber
- T1/2 of fulgide or fulgimide compound ([1]; with chromene 5 (0.07 part)): 148 h
- Initial color density [5]: 0.71%
- T1/2 [5]: 59 h

Compound: O=C1OC(=O)C2C1=C(C1CC1)c1c(sc3c1CCCC3)C21C2CCCC1CCC2 (stereo not drawn) [(54)]
- Color tone in T0 ([3]; with chromene 2 (0.03 part)): gray
- Color tone in T1/2 ([3]; with chromene 2 (0.03 part)): brown
- T1/2 of fulgide or fulgimide compound ([1]; with chromene 2 (0.03 part)): 134 h
- λmax [4]: 573 nm
- Initial color density [4]: 0.99
- T1/2 [4]: 54 h
- λmax [5]: 568 nm
- Initial color density [5]: 1.09%
- T1/2 [5]: 52 h

Compound: C1=CC2(CC3CCC2C3)Oc2c1ccc1ccccc21 (stereo not drawn) [Chromene compound 1, Spiro(norbornane-2,2'-(2H)benzo(h)-chromene)]
- T1/2 of chromene compound ([1]; 0.03 part, with fulgide/fulgimide 8 (0.05 part)): 170 h
- T1/2 of chromene compound ([1]; 0.03 part, with fulgide/fulgimide 30 (0.05 part)): 170 h
- T1/2 of chromene compound ([1]; 0.04 part chromene 1, with fulgide/fulgimide 2/48 (0.025/0.025 part)): 190 h
- T1/2 of chromene compound ([1]; 0.04 part, with fulgide/fulgimide 48 (0.05 part)): 148 h
- T1/2 of chromene compound ([2]; 0.03 part, fulgimide 2 (0.05), Irgastab 2002 (0.5)): 480 h
- T1/2 of chromene compound ([2]; 0.04 part, fulgimide 48 (0.05), Spinuvex A-36 (0.6)): 430 h

Compound: CC1=CC2(Oc3ccc4ccccc4c31)C1CCCC2CCC1 (stereo not drawn) [Chromene compound 3, 4'-methylspiro[bicyclo[3.3.1]nonane-9,2'-[2H]benzo[f]chromene]]
- T1/2 of chromene compound ([1]; 0.08 part, with fulgide/fulgimide 10 (0.05 part)): 150 h
- T1/2 of chromene compound ([1]; 0.08 part, with fulgide/fulgimide 44 (0.05 part)): 160 h
- T1/2 of chromene compound ([2]; 0.01 part, fulgimide 2 (0.05), Cyasorb 944 (0.5)): 400 h
- T1/2 of chromene compound ([2]; 0.1 part, fulgimide 48 (0.05), Tinuvin 765 (0.7)): 420 h

Compound: CC1=Cc2c(ccc3ccccc23)OC12CC1CCC2C1 (stereo not drawn) [Chromene compound 4, 3'-methylspiro[norbornane-2,2'-[2H]benzo-[f]chromene]]
- T1/2 of chromene compound ([1]; 0.04 part, with fulgide/fulgimide 24 (0.05 part)): 152 h
- T1/2 of chromene compound ([1]; 0.08 part, with fulgide/fulgimide 12 (0.05 part)): 180 h
- T1/2 of chromene compound ([2]; 0.01 part, fulgimide 2 (0.05), LS-2626 (0.4)): 480 h
- T1/2 of chromene compound ([2]; 0.1 part, fulgimide 48 (0.05), UV Check AM101 (0.4)): 430 h
